The source of these data is patent US12053441B2, “Formulations for improving the delivery of hydrophobic agents” (THE ROYAL INSTITUTION FOR THE ADVANCEMENT OF LEARNING / …, priority 2018, dated 2024).

In brackets after ≈: the same amount, converted by molar mass. Counter-ions that a name gives are not always drawn.

In one series the test system is UQ-deficient cells (Mclk1 KO or DKO cells). Briefly: Screening for compounds that increase survival or respiration of UQ-deficient cells.
Conditions: not given
The format is cell-based, mouse. The text has this: Four different screening methods were developed. The screening methods 1 to 3 are based on rescue-of-lethality in glucose-free galactose-containing media. The presence of galactose instead of glucose forces the cells to rely on oxidative phosphorylation for energy production. Screening method 4 is based on rescue of respiration, implying that processes immediately dependent on UQ have been rescued. Libraries of small molecules were screened for compounds and/or agents that increase survival of UQ-deficient cells (e.g., Mclk1 KO or DKO cells) in standard or modified galactose media depending on the screen settings.
The screen uses cells lacking UQ (e.g., Mclk1 KO cells) and consists of three key steps: • 1) Day 0: preparation of Mclk1 KO cells in 96-well plates in standard (glucose-containing) culture medium. • 2) Day 1: changing to glucose-free galactose-containing medium and adding compounds to be screened at a concentration of approximately 10 μM. • 3) Day 4 to 6: following 3 to 5 days of incubation with the compound to be screened, media were removed and cell viability was assayed by resazurin reduction assay.
The screen also uses cells lacking UQ biosynthesis (e.g., DKO cells) and its protocol is essentially the same as the galactose-only screen except that in step 2, a minimal amount of UQ10 is added into the galactose screening media at a concentration at which the added UQ10 is insufficient by itself to support survival.
The screen uses Mclk1 SKO cells and its protocol is essentially the same as the galactose-only screen except that in step 2, the screening medium is added with 2,4-DHB at a concentration that allows the KO cells to restore some UQ biosynthetic ability but not sufficiently to allow for a level of UQ production that is sufficient for respiration-dependent growth. Thus, under these conditions a compound that can boost the overall level of UQ biosynthesis might allow the cells to make enough UQ to survive in a respiration-dependent medium. Such a screen can identify compounds that boost UQ biosynthesis at any level, including at the level of gene expression.
This screening approach aims to directly identify compounds that can boost mitochondrial respiratory chain activity in respiration-deficient cells. […] For this, cells were seeded into XF24 V7 culture plates and treated with testing compounds for 1 to 2 days before a treatment effect on cellular respiration is measured using the Seahorse XF-24e Flux Analyzer. The XF assay was the same as above described except galactose (10 mM) rather glucose was used as the sugar source to increase respiration rate and thus assay sensitivity.
With `C[C@]12C=CC(=O)C=C1CC[C@@H]1[C@@H]2[C@@H](O)C[C@@]2(C)[C@H]1CC[C@]2(O)C(=O)CO` [prednisolone], the “identified by the screening methods as useful for UQ deficiency” value (“identified by the screening methods” for short) is “identified”.

Turning to `CC(=O)OCC(=O)[C@@]12N=C(C)O[C@@H]1C[C@H]1[C@@H]3CCC4=CC(=O)C=C[C@]4(C)[C@H]3[C@@H](O)C[C@@]12C` [deflazacort], the “identified by the screening methods” value is “identified”.

Consider `CC1(C)O[C@@H]2C[C@H]3[C@@H]4C[C@H](F)C5=CC(=O)C=C[C@]5(C)[C@@]4(F)[C@@H](O)C[C@]3(C)[C@]2(C(=O)CO)O1` [fluocinolone acetonide], for which the “identified by the screening methods” value is listed as “identified”.

For the molecule `COc1cc2c(cc1Cc1cccc(Cl)c1F)c(=O)c(C(=O)O)cn2[C@H](CO)C(C)C` [elvitegravir], the “identified by the screening methods” value is recorded as “identified”.

With `CC1(C)CCC(CN2CCN(c3ccc(C(=O)NS(=O)(=O)c4ccc(NCC5CCOCC5)c([N+](=O)[O-])c4)c(Oc4cnc5[nH]ccc5c4)c3)CC2)=C(c2ccc(Cl)cc2)C1` [ABT-199], the “identified by the screening methods” value is recorded as “identified”.

Take `CCC(=O)OCC(=O)[C@@]1(OC(=O)CC)[C@@H](C)C[C@H]2[C@@H]3CCC4=CC(=O)C=C[C@]4(C)[C@@]3(F)[C@@H](O)C[C@@]21C` [betamethasone dipropionate]: the “identified by the screening methods” value is “identified”.

In the case of `CCC(=O)O[C@]1(C(=O)SCF)[C@H](C)C[C@H]2[C@@H]3C[C@H](F)C4=CC(=O)C=C[C@]4(C)[C@@]3(F)[C@@H](O)C[C@@]21C` [fluticasone propionate], the “identified by the screening methods” value is “identified”.

`CC1=C(CC(=O)O)c2cc(F)ccc2/C1=C\c1ccc([S+](C)[O-])cc1` (stereo not shown) [sulindac]: the “identified by the screening methods” value is listed as “identified”.

As to `CC(=O)OCC(=O)[C@@]1(O)CC[C@H]2[C@@H]3CCC4=CC(=O)C=C[C@]4(C)[C@@]3(Cl)[C@@H](Cl)C[C@@]21C` [dichlorisone acetate], the “identified by the screening methods” value is “identified”.

With `CNC(=O)c1cccc(-c2ccc3c(N4CCOC[C@@H]4C)nc(N4CCOC[C@@H]4C)nc3n2)c1` [AZD2014], the “identified by the screening methods” value is “identified”.

`CC(=O)OCC(=O)[C@@]1(O)CC[C@H]2[C@@H]3CCC4=CC(=O)C=C[C@]4(C)[C@H]3[C@@H](O)C[C@@]21C` [prednisolone acetate]: the “identified by the screening methods” value is recorded as “identified”.

With `CNC(=O)Nc1ccc(-c2nc(N3CC4CCC(C3)O4)c3cnn(C4CCC5(CC4)OCCO5)c3n2)cc1` [WYE-125132], the “identified by the screening methods” value is “identified”.

Consider `C[C@H]1c2cccc(O)c2C(=O)C2=C(O)[C@]3(O)C(=O)C(C(N)=O)=C(O)[C@@H](N(C)C)[C@@H]3[C@@H](O)[C@@H]21` [doxycycline HCl], for which the “identified by the screening methods” value was “identified”.

With `CCc1c2c(nc3ccc(O)cc13)-c1cc3c(c(=O)n1C2)COC(=O)[C@]3(O)CC` [SN-38], the “identified by the screening methods” value is given as “identified”.

On to `C[C@@H]1COCCN1c1cc(C2(S(C)(=O)=O)CC2)nc(-c2cccc3[nH]ccc23)n1` [AZ20], for which the “identified by the screening methods” value is “identified”.

On to `C[C@]12C=CC(=O)C=C1CC[C@H]1[C@@H]3C[C@@H](O)[C@](O)(C(=O)CO)[C@@]3(C)C[C@H](O)[C@@]12F` [triamcinolone], for which the “identified by the screening methods” value is “identified”.

In the case of `CCCCC(=O)O[C@]1(C(=O)CO)[C@@H](C)C[C@H]2[C@@H]3CCC4=CC(=O)C=C[C@]4(C)[C@@]3(F)[C@@H](O)C[C@@]21C` [betamethasone valerate], the “identified by the screening methods” value was “identified”.

For Caspofungin acetate, the “identified by the screening methods” value is recorded as “identified”.

`CS(=O)(=O)N1CCc2c(-c3cnc(N)nc3)nc(N3CCOCC3)nc21` [CH5132799]: the “identified by the screening methods” value is reported as “identified”.

As for `CC(C)n1nc(-c2cc3cc(O)ccc3[nH]2)c2c(N)ncnc21` [PP242], the “identified by the screening methods” value is “identified”.

On to `CC1(C)O[C@@H]2C[C@H]3[C@@H]4CCC5=CC(=O)CC[C@]5(C)[C@@]4(F)[C@@H](O)C[C@]3(C)[C@]2(C(=O)CCl)O1` [halcinonide], for which the “identified by the screening methods” value was “identified”.

Take `CCOC(=O)O[C@]1(C(=O)OCCl)CC[C@H]2[C@@H]3CCC4=CC(=O)C=C[C@]4(C)[C@H]3[C@@H](O)C[C@@]21C` [ioteprednol etabonate]: the “identified by the screening methods” value is “identified”.

For `CC1(C)O[C@@H]2C[C@H]3[C@@H]4CCC5=CC(=O)C=C[C@]5(C)[C@H]4[C@@H](O)C[C@]3(C)[C@]2(C(=O)CO)O1` [desonide], the “identified by the screening methods” value is “identified”.

For the molecule `CCc1c2c(nc3ccc(OC(=O)N4CCC(N5CCCCC5)CC4)cc13)-c1cc3c(c(=O)n1C2)COC(=O)[C@]3(O)CC` [irinotecan], the “identified by the screening methods” value is “identified”.

With `CNC1CCCN(c2c(F)cc3c(=O)c(C(=O)O)cn(C4CC4)c3c2OC)C1` (stereo not shown) [balofloxacin], the “identified by the screening methods” value is recorded as “identified”.

`Nc1cc(C(F)(F)F)c(-c2cc(N3CCOCC3)nc(N3CCOCC3)n2)cn1` [BKM120, buparlisib]: the “identified by the screening methods” value is on record as “identified”.

On to `CC(C)C[C@H](NC(=O)CNC(=O)c1cc(Cl)ccc1Cl)B(O)O` [MLN2238], for which the “identified by the screening methods” value was “identified”.

In the case of `C[C@@H]1C[C@H]2[C@@H]3CCC4=CC(=O)C=C[C@]4(C)[C@@]3(Cl)[C@@H](O)C[C@]2(C)[C@@]1(OC(=O)c1ccco1)C(=O)CCl` [mometasone furoate], the “identified by the screening methods” value is “identified”.

As to `CC(=O)O[C@]1(C(C)=O)CC[C@H]2[C@@H]3C[C@H](C)C4=CC(=O)C=C[C@]4(C)[C@@]3(F)[C@@H](O)C[C@@]21C` [fluorometholone acetate], the “identified by the screening methods” value is reported as “identified”.

`Nc1nc(N)c2nc(-c3cccc(O)c3)cnc2n1` [TG100713]: the “identified by the screening methods” value was “identified”.

As for `C[C@]12CCC(=O)C=C1CC[C@@H]1[C@@H]2[C@@H](O)C[C@@]2(C)[C@H]1CC[C@]2(O)C(=O)CO` [hydrocortisone], the “identified by the screening methods” value is given as “identified”.

The series is the same for the next values; noted with them: DKO cells, minimal UQ10 added.
In the case of Caspofungin acetate, the “hit in the UQ supplementation screen (method 2)” value is listed as “one of the hits”.

System in a further series: not given
Assay: not given
The note with it: cited from earlier work.
Consider `O=C(O)c1ccccc1Nc1cccc(C(F)(F)F)c1` [flufenamic acid], for which the solubility in water is 0.00909 mg/mL (≈ 32.3 µM).

`Nc1nc2c(ncn2COCCO)c(=O)[nH]1` [acyclovir]: the solubility in water is below 2.5 mg/mL.

`CC(C)(C)NC(=O)[C@H]1CC[C@H]2[C@@H]3CC[C@H]4NC(=O)C=C[C@]4(C)[C@H]3CC[C@]12C` [finasteride]: the solubility in water is 0.0117 mg/mL (≈ 31.4 µM).

On to `O=C(O)COC(=O)Cc1ccccc1Nc1c(Cl)cccc1Cl` [aceclofenac], for which the “solubility in water” value is listed as “insoluble”.

`COc1ccc2[nH]c([S+]([O-])Cc3ncc(C)c(OC)c3C)nc2c1` (stereo not shown) [omeprazole]: the solubility in water was 0.359 mg/mL (≈ 1040 µM).

In the case of `COc1cc([C@@H]2c3cc4c(cc3[C@@H](O[C@@H]3O[C@@H]5CO[C@@H](c6cccs6)O[C@H]5[C@H](O)[C@H]3O)[C@H]3COC(=O)[C@H]23)OCO4)cc(OC)c1O` [teniposide], the solubility in water is recorded as 0.0598 mg/mL (≈ 91.1 µM).

Regarding `CO[C@H]1C[C@@H]2CC[C@@H](C)[C@@](O)(O2)C(=O)C(=O)N2CCCC[C@H]2C(=O)O[C@H]([C@H](C)C[C@@H]2CC[C@@H](OC(=O)C(C)(CO)CO)[C@H](OC)C2)CC(=O)[C@H](C)/C=C(\C)[C@@H](O)[C@@H](OC)C(=O)[C@H](C)C[C@H](C)/C=C/C=C/C=C/1C` [temsirolimus], the solubility in water is 0.02 mg/mL (≈ 19.4 µM).

Turning to `COc1cc([C@@H]2c3cc4c(cc3[C@@H](O[C@@H]3O[C@@H]5CO[C@@H](C)O[C@H]5[C@H](O)[C@H]3O)[C@H]3COC(=O)[C@H]23)OCO4)cc(OC)c1O` [etoposide], the solubility in water is 0.2 mg/mL (≈ 340 µM).

For `O=c1cc(-c2ccc(O)c(O)c2)oc2cc(O)cc(O)c12` [luteolin], the solubility in water is 0.00572 mg/mL (≈ 20 µM).

Consider `CCCC1O[C@@H]2C[C@H]3[C@@H]4CCC5=CC(=O)C=C[C@]5(C)[C@H]4[C@@H](O)C[C@]3(C)[C@]2(C(=O)CO)O1` (stereo partly shown) [budesonide], for which the solubility in water is on record as 10.7 mg/1.

Take `CCCSc1ccc2nc(NC(=O)OC)[nH]c2c1` [albendazole]: the “solubility in water” value is “insoluble”.
